As a reminder, the IC50 is the concentration needed to halve the response being measured.

The source made the active and inactive calls. The calls are words filed in the database; no cut-off is given here.

The target of series [1] is T1, Epidermal growth factor receptor (Homo sapiens, UniProt P00533, C797S/EX19DEL/T790M). Nature of the series: Inhibition of recombinant EGFR Del19/T790M/C797S mutant (unknown origin) in presence of ATP by TR-FRET assay. For orientation: Time-resolved FRET reads energy transfer from a long-lived donor to a nearby acceptor.
T1 sequence (P00533 whole entry, looked up, stated change not applied): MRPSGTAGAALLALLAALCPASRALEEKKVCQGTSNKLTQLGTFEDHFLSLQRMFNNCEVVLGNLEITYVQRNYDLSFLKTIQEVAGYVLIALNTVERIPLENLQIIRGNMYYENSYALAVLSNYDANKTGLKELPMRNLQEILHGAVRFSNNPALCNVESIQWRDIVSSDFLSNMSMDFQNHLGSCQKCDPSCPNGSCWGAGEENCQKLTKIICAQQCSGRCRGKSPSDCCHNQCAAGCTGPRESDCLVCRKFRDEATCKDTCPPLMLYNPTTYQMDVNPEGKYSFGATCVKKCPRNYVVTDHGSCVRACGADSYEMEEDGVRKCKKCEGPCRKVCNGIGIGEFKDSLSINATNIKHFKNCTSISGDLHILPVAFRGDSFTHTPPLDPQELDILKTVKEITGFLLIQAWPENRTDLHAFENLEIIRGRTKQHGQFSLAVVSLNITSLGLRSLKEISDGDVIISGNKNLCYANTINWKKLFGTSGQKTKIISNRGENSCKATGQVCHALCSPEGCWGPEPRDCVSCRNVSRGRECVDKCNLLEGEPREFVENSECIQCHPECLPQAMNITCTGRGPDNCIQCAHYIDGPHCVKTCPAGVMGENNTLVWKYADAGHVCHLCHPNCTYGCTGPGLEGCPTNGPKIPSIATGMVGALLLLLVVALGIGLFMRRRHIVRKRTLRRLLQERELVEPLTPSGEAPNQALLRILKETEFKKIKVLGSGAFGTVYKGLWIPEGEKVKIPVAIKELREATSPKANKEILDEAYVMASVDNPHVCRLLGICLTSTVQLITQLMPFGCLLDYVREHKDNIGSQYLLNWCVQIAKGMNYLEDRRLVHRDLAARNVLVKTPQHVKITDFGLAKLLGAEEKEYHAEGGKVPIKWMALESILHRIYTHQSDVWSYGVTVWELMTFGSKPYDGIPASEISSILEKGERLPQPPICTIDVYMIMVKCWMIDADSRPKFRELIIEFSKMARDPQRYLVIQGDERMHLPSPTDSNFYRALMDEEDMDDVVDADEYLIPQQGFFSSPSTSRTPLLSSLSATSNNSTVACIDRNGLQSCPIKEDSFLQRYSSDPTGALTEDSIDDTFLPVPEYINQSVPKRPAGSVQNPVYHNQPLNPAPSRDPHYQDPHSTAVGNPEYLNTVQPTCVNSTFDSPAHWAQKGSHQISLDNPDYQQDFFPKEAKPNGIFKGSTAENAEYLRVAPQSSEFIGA
The target of series [2] is Epidermal growth factor receptor (Mus musculus) (UniProt Q01279). Description: Inhibition of EGFR in mouse KC-0116 cells assessed as downregulation of AKT protein expression level incubated for 24 hrs by Western blotting analysis. Format: cell-based. (Immunoblotting shows a protein as a band on a membrane.)
Epidermal growth factor receptor (Mus musculus), sequence (Q01279 whole entry): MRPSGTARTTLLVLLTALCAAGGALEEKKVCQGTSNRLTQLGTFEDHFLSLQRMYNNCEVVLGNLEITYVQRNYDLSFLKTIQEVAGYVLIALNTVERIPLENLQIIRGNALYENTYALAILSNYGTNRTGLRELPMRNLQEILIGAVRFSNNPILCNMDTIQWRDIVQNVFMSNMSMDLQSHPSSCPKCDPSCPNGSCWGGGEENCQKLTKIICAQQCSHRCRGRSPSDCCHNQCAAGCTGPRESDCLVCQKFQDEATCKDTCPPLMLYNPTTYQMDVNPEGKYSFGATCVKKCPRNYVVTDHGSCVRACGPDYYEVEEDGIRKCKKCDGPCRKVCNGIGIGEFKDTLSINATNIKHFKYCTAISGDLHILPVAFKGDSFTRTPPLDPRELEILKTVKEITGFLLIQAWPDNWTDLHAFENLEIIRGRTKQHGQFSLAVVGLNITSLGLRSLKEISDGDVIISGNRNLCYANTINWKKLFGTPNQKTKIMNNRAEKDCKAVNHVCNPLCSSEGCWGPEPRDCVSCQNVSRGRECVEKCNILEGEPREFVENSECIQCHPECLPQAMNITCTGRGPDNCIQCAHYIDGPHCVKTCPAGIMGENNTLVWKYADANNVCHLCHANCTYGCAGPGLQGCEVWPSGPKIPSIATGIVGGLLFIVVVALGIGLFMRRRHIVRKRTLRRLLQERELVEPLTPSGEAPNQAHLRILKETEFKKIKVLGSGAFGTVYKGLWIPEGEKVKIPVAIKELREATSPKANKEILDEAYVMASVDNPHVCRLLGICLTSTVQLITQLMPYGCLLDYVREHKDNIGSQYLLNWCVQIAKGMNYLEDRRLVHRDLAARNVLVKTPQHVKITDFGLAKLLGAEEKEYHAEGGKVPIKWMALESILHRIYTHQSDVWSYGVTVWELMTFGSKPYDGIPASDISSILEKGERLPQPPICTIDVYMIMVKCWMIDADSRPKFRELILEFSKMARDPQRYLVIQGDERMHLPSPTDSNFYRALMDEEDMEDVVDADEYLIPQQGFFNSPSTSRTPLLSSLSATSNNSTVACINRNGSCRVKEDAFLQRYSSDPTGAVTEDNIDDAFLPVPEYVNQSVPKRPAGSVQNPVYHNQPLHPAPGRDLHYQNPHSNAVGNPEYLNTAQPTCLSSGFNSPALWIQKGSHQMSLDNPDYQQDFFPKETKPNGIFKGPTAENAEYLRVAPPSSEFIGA
Series [3] has the same target. Nature of the series: Inhibition of EGFR in mouse KC-0116 cells assessed as downregulation of ERK protein expression level incubated for 24 hrs by Western blotting analysis. Format: cell-based.
Series [4] relates to KC-0116. Description: Antitumor activity against mouse KC-0116 cells xenografted in BALB/c mouse assessed as reduction in tumor weight at 40 mg/kg,po administrated once daily for 10 days. Format: functional, organism-based. The following applies: time 10.0 day.
Series [5] has as its target Epidermal growth factor receptor (Mus musculus) (UniProt Q01279). Nature of the series: Inhibition of EGFR in mouse KC-0122 cells assessed as downregulation of EGFR phosphorylation level incubated for 24 hrs by Western blotting analysis. Format: cell-based.
Series [6] is described as follows: Induction of apoptosis in mouse KC-0116 cells assessed as viable cells at 1 uM incubated for 48 hrs by annexin V-FITC/ PI staining based flow cytometry (reference value: 93.27 %). Format: functional. The following applies: Mus musculus, KC-0116, read-out: Activity.
Series [7] deals with Epidermal growth factor receptor (Mus musculus) (UniProt Q01279). Description: Inhibition of EGFR in mouse KC-0116 cells assessed as downregulation of EGFR phosphorylation level at 1 uM incubated for 24 hrs by Western blotting analysis. Format: cell-based.
Series [8] can be described thus: Antiproliferative activity against mouse KC-0122 cells assessed as inhibition of cell growth incubated for 72 hrs by MTT assay. The following applies: KC-0122, 72 h. The class given is functional, cell-based. For orientation: Tetrazolium assays rely on reduction of a dye to a coloured formazan, in cell work by metabolically active cells.
Series [9] concerns the target Epidermal growth factor receptor (Mus musculus) (UniProt Q01279). Description: Inhibition of EGFR in mouse KC-0122 cells assessed as downregulation of EGFR phosphorylation level at 1 uM incubated for 24 hrs by Western blotting analysis. Format: cell-based.
Series [10] can be described thus: Antitumor activity against mouse KC-0116 cells xenografted in BALB/c mouse assessed as tumor growth inhibition at 40 mg/kg,po administrated once daily for 10 days relative to control. Format: functional. The following applies: KC-0116, 240 h, time 10 day, read-out: TGI.
Series [11] deals with Epidermal growth factor receptor (Mus musculus) (UniProt Q01279). Description: Inhibition of EGFR in mouse KC-0122 cells assessed as downregulation of AKT protein expression level at 1 uM incubated for 24 hrs by Western blotting analysis. The class given is cell-based.
Series [12] shares this target. Nature of the series: Inhibition of EGFR in mouse KC-0122 cells assessed as downregulation of ERK protein expression level at 1 uM incubated for 24 hrs by Western blotting analysis. Format: cell-based.
Series [13] shares this target. Nature of the series: Inhibition of EGFR in mouse KC-0122 cells assessed as downregulation of ERK protein expression level incubated for 24 hrs by Western blotting analysis. The class given is cell-based.
The next series relates to HepG2. Nature of the series: Antiproliferative activity against human HepG2 cells harboring VEGFR assessed as inhibition of cell growth incubated for 72 hrs by MTT assay. Format: functional, cell-based. The following applies: HepG2, 72 h.
Series [14] concerns the target Epidermal growth factor receptor (Mus musculus) (UniProt Q01279). Nature of the series: Inhibition of EGFR in mouse KC-0116 cells assessed as downregulation of EGFR phosphorylation level incubated for 24 hrs by Western blotting analysis. Format: cell-based.
In series [15] the target is Epidermal growth factor receptor (Homo sapiens, UniProt P00533, C797S/L858R/T790M). Nature of the series: Inhibition of EGFR L858R/T790M/C797S mutant (unknown origin).
Epidermal growth factor receptor (Homo sapiens, UniProt P00533, C797S/L858R/T790M), sequence (P00533 25-1210 T790M/C797S/L858R limits assumed): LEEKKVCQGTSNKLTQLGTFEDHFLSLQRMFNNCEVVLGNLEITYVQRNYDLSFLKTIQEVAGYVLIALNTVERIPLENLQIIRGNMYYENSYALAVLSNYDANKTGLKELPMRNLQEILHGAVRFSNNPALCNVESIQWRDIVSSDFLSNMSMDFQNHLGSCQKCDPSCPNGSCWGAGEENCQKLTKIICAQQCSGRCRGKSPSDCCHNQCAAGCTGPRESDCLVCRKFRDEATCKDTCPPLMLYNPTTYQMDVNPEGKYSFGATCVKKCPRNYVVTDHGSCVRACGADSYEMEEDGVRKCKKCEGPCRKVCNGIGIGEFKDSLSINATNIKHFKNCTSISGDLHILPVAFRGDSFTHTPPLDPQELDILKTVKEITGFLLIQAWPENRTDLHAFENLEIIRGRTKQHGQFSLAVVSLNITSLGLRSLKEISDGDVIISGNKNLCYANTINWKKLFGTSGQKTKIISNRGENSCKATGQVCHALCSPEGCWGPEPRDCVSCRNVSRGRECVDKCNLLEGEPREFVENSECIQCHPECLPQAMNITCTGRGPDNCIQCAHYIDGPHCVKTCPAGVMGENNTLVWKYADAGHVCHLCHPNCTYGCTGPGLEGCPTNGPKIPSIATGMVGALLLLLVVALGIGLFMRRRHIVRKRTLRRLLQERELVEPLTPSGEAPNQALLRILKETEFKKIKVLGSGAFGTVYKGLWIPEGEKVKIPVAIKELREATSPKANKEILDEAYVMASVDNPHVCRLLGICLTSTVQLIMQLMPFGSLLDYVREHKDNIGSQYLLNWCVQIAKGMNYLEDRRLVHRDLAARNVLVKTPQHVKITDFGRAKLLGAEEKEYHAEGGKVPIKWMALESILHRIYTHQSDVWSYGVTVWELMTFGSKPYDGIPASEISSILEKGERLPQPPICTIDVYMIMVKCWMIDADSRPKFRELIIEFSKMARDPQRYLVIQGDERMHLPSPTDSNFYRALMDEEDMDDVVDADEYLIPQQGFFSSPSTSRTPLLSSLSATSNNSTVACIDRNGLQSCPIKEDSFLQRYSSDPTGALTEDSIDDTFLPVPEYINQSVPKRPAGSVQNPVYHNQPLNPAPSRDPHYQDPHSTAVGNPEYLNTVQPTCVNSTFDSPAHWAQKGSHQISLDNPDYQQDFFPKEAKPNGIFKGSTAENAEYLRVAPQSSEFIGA
Series [16] is described as follows: Induction of apoptosis in mouse KC-0116 cells assessed as late apoptotic cells at 10 uM incubated for 48 hrs by annexin V-FITC/ PI staining based flow cytometry (reference value: 1 %). Format: functional.
Series [17] deals with Epidermal growth factor receptor (Mus musculus) (UniProt Q01279). Nature of the series: Inhibition of EGFR in mouse KC-0116 cells assessed as downregulation of ERK protein expression level at 1 uM incubated for 24 hrs by Western blotting analysis. Format: cell-based.
Series [18] is described as follows: Induction of apoptosis in mouse KC-0116 cells assessed as late apoptotic cells at 0.1 uM incubated for 48 hrs by annexin V-FITC/ PI staining based flow cytometry (reference value: 1 %). Format: functional.
Series [19] in a line: Toxicity in BALB/c mouse xenografted with mouse KC-0116 cells assessed as change in body weight at 40 mg/kg,po administrated once daily for 10 days. Format: organism-based. The following applies: in vivo, 240 h, time 10 day.
The next series concerns NCI-H1975. Nature of the series: Antiproliferative activity against human NCI-H1975 cells harboring EGFR L858R/T790M mutant assessed as inhibition of cell growth incubated for 72 hrs by MTT assay. Format: functional, cell-based. The following applies: NCI-H1975, 72 h.
Series [20] can be described thus: Antiproliferative activity against mouse KC-0116 cells assessed as inhibition of cell growth incubated for 72 hrs by MTT assay. Format: functional, cell-based. The following applies: KC-0116, 72 h.
The target in series [21] is T1, Epidermal growth factor receptor. Description: Inhibition of EGFR Del19/T790M/C797S mutant (unknown origin).
Series [22] in a line: Induction of apoptosis in mouse KC-0116 cells assessed as necrotic cells at 0.1 uM incubated for 48 hrs by annexin V-FITC/ PI staining based flow cytometry (reference value: 0.04 %). The class given is functional.
Series [23] is described as follows: Induction of apoptosis in mouse KC-0116 cells assessed as viable cells at 10 uM incubated for 48 hrs by annexin V-FITC/ PI staining based flow cytometry (reference value: 93.27 %). The class given is functional. The following applies: read-out: Activity.
A short description of series [24]: Toxicity in BALB/c mouse xenografted with mouse KC-0116 cells assessed as change in body weight at 10 mg/kg,po administrated once daily for 10 days. The class given is organism-based. The following applies: in vivo, 240 h, time 10 day.
A short description of series [25]: Induction of apoptosis in mouse KC-0116 cells assessed as early apoptotic cells at 0.1 uM incubated for 48 hrs by annexin V-FITC/ PI staining based flow cytometry (reference value: 8.09 %). Format: functional.
Series [26] can be described thus: Induction of apoptosis in mouse KC-0116 cells assessed as necrotic cells at 10 uM incubated for 48 hrs by annexin V-FITC/ PI staining based flow cytometry (reference value: 0.04 %). The class given is functional.
Another series has as its system HCC827. Nature of the series: Antiproliferative activity against human HCC827 cells harboring EGFR Del19 mutant assessed as inhibition of cell growth incubated for 72 hrs by MTT assay. Format: functional, cell-based. The following applies: HCC827, 72 h.
A further series has as its system A-431. Nature of the series: Antiproliferative activity against human A-431 cells harboring wild type EGFR assessed as inhibition of cell growth incubated for 72 hrs by MTT assay. Format: functional, cell-based. The following applies: A-431, 72 h.
In series [27] the target is Epidermal growth factor receptor (Mus musculus) (UniProt Q01279). Nature of the series: Inhibition of EGFR in mouse KC-0122 cells assessed as downregulation of AKT protein expression level incubated for 24 hrs by Western blotting analysis. The class given is cell-based.
The nature of series [28]: Induction of apoptosis in mouse KC-0116 cells assessed as late apoptotic cells at 1 uM incubated for 48 hrs by annexin V-FITC/ PI staining based flow cytometry (reference value: 1 %). Format: functional.
Series [29] is described as follows: Induction of apoptosis in mouse KC-0116 cells assessed as viable cells at 0.1 uM incubated for 48 hrs by annexin V-FITC/ PI staining based flow cytometry (reference value: 93.27 %). Format: functional. The following applies: read-out: Activity.
A short description of series [30]: Induction of apoptosis in mouse KC-0116 cells assessed as early apoptotic cells at 1 uM incubated for 48 hrs by annexin V-FITC/ PI staining based flow cytometry (reference value: 8.09 %). Format: functional.
Series [31] can be described thus: Induction of apoptosis in mouse KC-0116 cells assessed as early apoptotic cells at 10 uM incubated for 48 hrs by annexin V-FITC/ PI staining based flow cytometry (reference value: 8.09 %). Format: functional.
The subject of series [32] is KC-0116. Description: Induction of cell cycle arrest in mouse KC-0116 cells assessed as accumulation of cells at G1 phase at 1 uM incubated for 24 hrs by RNase/PI staining based flow cytometry. The class given is functional.
Series [33] concerns the target Epidermal growth factor receptor (Mus musculus) (UniProt Q01279). Description: Inhibition of EGFR in mouse KC-0116 cells assessed as downregulation of AKT protein expression level at 1 uM incubated for 24 hrs by Western blotting analysis. The class given is cell-based.
A short description of series [34]: Antitumor activity against mouse KC-0116 cells xenografted in BALB/c mouse assessed as tumor growth inhibition at 10 mg/kg,po administrated once daily for 10 days relative to control. The class given is functional. The following applies: KC-0116, 240 h, time 10 day, read-out: TGI.
Series [35] is described as follows: Induction of apoptosis in mouse KC-0116 cells assessed as necrotic cells at 1 uM incubated for 48 hrs by annexin V-FITC/ PI staining based flow cytometry (reference value: 0.04 %). The class given is functional.

Consider `CC(C)n1c2cc(Nc3ccnc(-c4cnn(S(=O)(=O)C5CC5)c4)n3)ncc2c2c(OCC(F)(F)F)cc(N3CCN(C)CC3)cc21`, for which, in series [1], the IC50 worked out at 0.00028 µM.
With `CN(C)C1CCN(c2ccc(Nc3nccc(-c4cn(C)c5ccccc45)n3)cc2NS(C)(=O)=O)CC1`, the inhibition result in [2], in series [3], in series [5], in series [13], in series [14] and in [27] was “Dose-Dependent Effect” each time. Besides, the outcome with KC-0116 [4] and in the series with KC-0116 [32] was Active. The viability at 1 µM in [6] came out at 72.9%. Further, the inhibition result in [7], in series [9], in series [11], in series [12], in [17] and in [33] was “Active” throughout. In addition, the IC50 was determined as 0.17 µM in [8]; 1.78 µM in the series with HepG2; 0.113 µM in series [15]; 1 µM in the series on NCI-H1975; 0.16 µM in [20]; 0.018 µM in [21]. The IC50 in the series on HCC827 was determined as 0.16 µM; in the series with A-431, 1.99 µM. In addition, in series [10], the inhibition in vivo at 40 mg/kg is 77.6%. The Activity is recorded as 0.77% in [16]; 1.42% in series [18]; “Non-Toxic” in series [19]; 0.08% in [22]; “Non-Toxic” in [24]; 5.5% in series [25]. Besides, the Activity in [26] is recorded as 0.09%; in [28] it was 2.66%; in [30] it was 25.29%; in series [31], 91.42%; in series [35], 0.17%. Besides, the viability at 10 µM in [23] is 1.53%. Further, the viability at 0.1 µM in series [29] was 92.9%. Moreover, in series [34], the inhibition in vivo at 10 mg/kg is 28.4%.

(Values after ChEMBL document CHEMBL5634136 (Eur J Med Chem, 2023).)
